According to patent US9872919B2, “Prodrugs for selective anticancer therapy” (THE RESEARCH FOUNDATION FOR THE STATE UNIVERSITY OF NEW YORK, priority 2012, dated 2018):

How the values were obtained:
[1] = test system: malignant cell lines with high HDAC and CTSL activity (COGA-10, HCA-7, HT29, HCT116); assay: MTS cell viability assay, malignant colon cancer cell lines; assay type: cell-based, human; conditions: 5 d, panel of colon cell lines, given as a range, read-out: IC50, inhibition of cell viability
Procedure: FIG. 13. Inhibition of cell viability by BKAc-Puro is presented in dose-response curve format for the same cell lines as in FIG. 8. The cell lines were treated with DMSO or the indicated doses of agent (4.22, 8.44, 16.9, 33.8, 67.5, or 135 μM) for 5 d followed by MTS assay. Data represent mean values of triplicate mesurements±s.d. (n=3). IC50 values were fit by logistic regression.
(§1) Cell number was determined by cell counting using improved Neubauer hemacytometer. Cell viability was calculated as the number of viable cells divided by the total number of cells using Trypan Blue Stain (Invitrogen) to distinguish non-viable cells. Data were obtained from duplicated samples with quadruplicate measurements. MTS based cell viability assay was performed using CellTiter 96 Aqueous Cell Proliferation Assay (Promega) according to the manufacturer's instruction. […] After additional 2-3 h incubation, the absorbance of the formazan at 490 nm was measured by the microplate reader. […] Determination of non-viable cells using PI staining was performed by adding 1 μg/ml of PI solution (Sigma) to the cell culture, prior to the examination under fluorescence microscopy (Axiovert 3, Carl Zeiss) through a×32 objective equipped with a digital imaging processor (Infinity 3, Lumenera).

[2] = test system: CCD841-CoN cells; assay: MTS cell viability assay, normal colon cells; assay type: cell-based, human; conditions: negative control in pancreatic and prostate panels
Procedure: FIG. 15. Inhibition of cell viability by BKAc-Puro. The cell lines were grown and analyzed as in FIG. 12.
FIG. 18. Selective cytotoxicity by BKAc-Puro on pancreatic cancer cells. Pancreatic cancer (BXPC-3 and Miapaca-2), colon cancer (HCT116 as a positive control sensitive to the drug), and normal colon (CCD841-CoN as a negative control) cells were grown and analyzed as in FIG. 13. BKAc-Puro can effectively cause cell death on pancreatic cancer cells (BXPC-3 and MiaPaca-2) that are known to resistant to conventional chemotherapeutic drugs including 5-FU and Gemicitabine.
(§2) FIG. 19. Selective cytotoxicity by BKAc-Puro on prostate cancer cells. Prostate cancer (PC-3, DU-145, and LNCaP), colon cancer (HCT116 as a positive control sensitive to the drug), and normal colon (CCD841-CoN as a negative control) cells were grown and analyzed as in FIG. 13. BKAc-Puro can effectively cause cell death on prostate cancer cells.
Cell number was determined by cell counting using improved Neubauer hemacytometer. Cell viability was calculated as the number of viable cells divided by the total number of cells using Trypan Blue Stain (Invitrogen) to distinguish non-viable cells. Data were obtained from duplicated samples with quadruplicate measurements. […] After additional 2-3 h incubation, the absorbance of the formazan at 490 nm was measured by the microplate reader. […]

[3] = test system: pancreatic cancer cells (BXPC-3 and MiaPaca-2); assay: MTS cell viability assay, pancreatic cancer cell lines; assay type: cell-based, human
Procedure: FIG. 16. Anticancer effect of BKAc-Puro on pancreatic cell lines. The cell lines were treated with DMSO (vehicle), BKAc-Puro (54 μM), or Puro (4.2 μM) for 5 d followed by MTS assay. Normal Eph4 (non-pancreatic) cells are shown as control. Data represent mean values of triplicate mesurements±s.d.
FIG. 18. Selective cytotoxicity by BKAc-Puro on pancreatic cancer cells. Pancreatic cancer (BXPC-3 and Miapaca-2), colon cancer (HCT116 as a positive control sensitive to the drug), and normal colon (CCD841-CoN as a negative control) cells were grown and analyzed as in FIG. 13. […]
as §1, with “cells.” for “cells. Data were obtained from duplicated samples with quadruplicate measurements. MTS based cell viability assay was performed using CellTiter 96 Aqueous Cell Proliferation Assay (Promega) according to the manufacturer's instruction.”

[4] = test system: non-malignant Caco-2 cells; assay: Cell number determination, Caco-2; assay type: cell-based, human; conditions: 54 μM, 5 d
Procedure: FIG. 9. The colon cancer cell lines were grown for 5 d either with vehicle control DMSO (gray symbols) or 54 μM BKAc-Puro (red and blue symbols), and cell number was determined at the indicated time points.
as §1, with “instruction. Either 1 μl of DMSO alone or variable concentrations of BKAc-Puro or Puro in DMSO were added to the cell lines seeded at 5×10^4 cells per well in 96-well tissue culture plates in 100 μl of the growth medium, followed by 3-5 d incubation at 37° C. with 5% CO2 atmosphere.” for “instruction.”

[5] = test system: breast cancer cells (MCF-7 and MDA-MB-231); assay: PI staining cytotoxicity, breast cancer cells; assay type: cell-based, human
Procedure: (§3) FIG. 17. Selective cytotoxicity by BKAc-Puro on breast cancer cells. Normal mammary gland epithelial cells (Eph4) and breast cancer cells (MCF-7 and MDA-MB-231) were grown and analyzed as in FIG. 10. BF, bright field. PI, fluorescent PI channel. BKAc-Puro can selectively cause cell death in breast cancer cells (MCF-7 and MDA-MB-231) while leaving normal Eph4 cells unharmed.
as §1

[6] = test system: normal mammary gland epithelial cells (Eph4); assay: PI staining cytotoxicity, normal mammary gland epithelial cells; assay type: cell-based, mouse
Procedure: as §3, §1

[7] = test system: prostate cancer cells (PC-3, DU-145 and LNCaP); assay: Cytotoxicity on prostate cancer cells (MTS); assay type: cell-based, human
Procedure: as §2, §1

[8] = test system: HCT116 xenograft tumors; assay type: in vivo
Procedure: FIG. 29. In vivo anticancer efficacy of Boc-KAc-Puro. (a) Tumor growth in HCT116 xenograft model. Animals were treated with acidified saline control or Boc-KAc-Puro (50 or 150 mg/kg). Values are mean±s.d. (n=5 mice per group). ***P<0.001 compared to the control group. P=0.000716 (50 mg/kg), P=0.000349 (150 mg/kg) at 10 d. (b) Body weight change during the treatment in a was monitored as a sign of general animal health. Values are mean±s.d. (c) Tumor growth in HT29 xenograft model. Animals were treated with acidified saline control or Boc-KAc-Puro (150 mg/kg). Values are mean±s.d. (n=5 mice per group). ***P<0.001 compared to the control group. P=0.000514 (150 mg/kg) at 10 d. (d) Body weight change during the treatment in c was monitored as a sign of general animal health. Values are mean±s.d. (e) Levels of Puro-incorporated proteins were monitored by immunoblotting. Animals bearing HT29 xenograft tumor were given daily intraperitoneal administration of the prodrug at 150 mg/kg/dose for 3 d, followed by preparation of tissue lysates. The lower panel (anti-α-Tubulin) served as a loading control.
Athymic mice (NCr, female, age 6 weeks, Taconic) were subcutaneously injected with 5×10^5 cells (HCT116 or HT29) into the lower flank, then treatment was initiated when small palpable tumors had developed (>3 mm in diameter). […] Tumor volumes and body weight were monitored daily. […] Data were expressed as mean±s.d. […]

SMILES: COc1ccc(C[C@H](NC(=O)[C@H](CCCCNC(C)=O)NC(=O)OC(C)(C)C)C(=O)N[C@H]2[C@@H](O)[C@H](n3cnc4c(N(C)C)ncnc43)O[C@@H]2CO)cc1 [BKAc-Puro, N-[3′-(α-Amino-p-methoxyhydrocinnamamido)-3′-deoxy-N,N-dimethyldenosinyl]-N-α-(t-butoxycarbonyl)-N-ε-acetyl-L-lysineamide]
- IC50 [1]: ~10 µM
- effect on normal colon cells [2]: relatively little effect
- anticancer effect on cell viability ([3]; 54 μM, 5 d, MTS): effective
- cell death ([3]; cells known to be resistant to 5-FU and Gemicitabine): effectively caused cell death
- cell proliferation (cell number) [4]: allowed them to proliferate to confluency
- cell death [5]: selectively caused cell death
- cell death [6]: unharmed
- cell death [7]: effectively caused cell death
- tumor growth ([8]; 50 and 150 mg/kg/dose daily intraperitoneally for 10 d): dose-dependent inhibition of tumor growth
- tumor mass vs acidified saline control ([8]; P<0.001, 50 and 150 mg/kg, 10 d): significantly smaller tumor mass
